Laboratory results published in article PMC7591920, “A protein tertiary structure mimetic modulator of the Hippo signalling pathway” (Nature Communications, 2020).
Bridge positions count the residues as written; N and C are the ends. Square brackets hold non-standard residues; d marks the D form. Peptide text beside a SMILES is read from it. Orn = NCCC[C@H](N)C(=O)O; Dab = NCC[C@H](N)C(=O)O

Molecular target: T1, mTEAD4 (Mus musculus, UniProt Q62296)
T1 construct: Mouse TEAD4(210–427) cDNA fused with a 6x His-tag and a 3C protease cleavage site; 6x His-tag; 3C protease cleavage site; made in house; host or cells: E. coli BL21 DE3 RIL(K+)
Test: SPR binding to immobilised mTEAD4
Conditions: mTEAD4 amine-coupled on CM5, multi-cycle, steady-state fit 1:1 model, 10 mM HEPES 150 mM NaCl 0.05% Tween-20 pH 7.4, 0.3% DMSO, 20 °C, Fig. 1 values n = 1 replicate
Experimental: Sensor chips Series S CM5 (Research grade) were obtained from GE Healthcare. Prior to use, the sensor chips were equilibrated at room temperature for 15 min to prevent water condensation on the detector side of the sensor chip surface. A running buffer was prepared composed of 10 mM HEPES, 150 mM NaCl, and 0.05% (w/v) Tween-20, pH 7.4, and the system was equilibrated at 20 °C using a flow rate of 30 µL min^−1 after docking of the sensor chip. Ligand binding experiments have been performed applying the concept of multi-cycle kinetics. A contact time of 45 s was selected, followed by a 6-min dissociation phase to allow for complete dissociation of the analyte prior to the next cycle. […] Typically, seven concentrations of the analytes have been examined applying a threefold dilution pattern with 30 µM as top concentration. For the analysis, five running buffer blanks were injected to equilibrate the instrument. […] The carboxyl-dextran surface was activated for 7 min with 0.05 M NHS and 0.2 M EDC, followed by an injection of the proteins in 10 mM MES pH 6.4 at a concentration of 30–50 µg mL^−1. […] This was followed by a deactivation of the residual esters by injecting a solution of 0.5 M ethanolamine pH 8.0 for 7 min before engaging in ligand binding experiments. Reference surfaces were prepared accordingly, omitting the injection of protein over the activated reference surface.

T1 sequence (Q62296 210-427): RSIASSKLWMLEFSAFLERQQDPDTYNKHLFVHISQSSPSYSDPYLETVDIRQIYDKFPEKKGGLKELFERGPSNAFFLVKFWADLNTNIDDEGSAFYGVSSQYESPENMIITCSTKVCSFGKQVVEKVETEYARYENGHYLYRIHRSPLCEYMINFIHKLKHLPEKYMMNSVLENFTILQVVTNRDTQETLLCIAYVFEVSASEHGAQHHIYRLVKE

| Compound | Kd [µM] |
| --- | --- |
| CC[C@H](C)[C@@H]1NC(=O)[C@H](CCC(N)=O)NC(=O)[C@H](CC(C)C)NC(=O)[C@H](Cc2c[nH]c3ccccc23)NC(=O)[C@H]([C@@H](C)O)NC(=O)[C@H](CC(=O)O)NC(=O)CNC(=O)[C@H](CC(C)C)NC(=O)[C@H](C)NC(=O)[C@H](CCCCN)NC(=O)[C@H](C)NC(=O)[C@H](Cc2ccccc2)NC(=O)[C@H](Cc2c[nH]cn2)NC(=O)[C@H](CC(=O)O)NC(=O)[C@@H](NC(=O)[C@@H](NC(=O)[C@H](CO)NC(C)=O)C(C)C)CC(=O)NCC[C@@H](C(=O)N[C@@H](C)C(=O)N[C@@H](C)C(N)=O)NC1=O [4A] (Ac-SVDDHFAKALGDTWLQI[Dab]AA-NH2; lactam 3-18) | 11 |
| CC[C@H](C)[C@@H]1NC(=O)[C@H](CCC(N)=O)NC(=O)[C@H](CC(C)C)NC(=O)[C@H](Cc2c[nH]c3ccccc23)NC(=O)[C@H]([C@@H](C)O)NC(=O)[C@H](CC(=O)O)NC(=O)CNC(=O)[C@H](CC(C)C)NC(=O)[C@H](C)NC(=O)[C@H](CCCCN)NC(=O)[C@H](C)NC(=O)[C@H](Cc2ccccc2)NC(=O)[C@H](Cc2c[nH]cn2)NC(=O)[C@H](CC(=O)O)NC(=O)[C@@H](NC(=O)[C@@H](NC(=O)[C@H](CO)NC(C)=O)C(C)C)CC(=O)NCCC[C@@H](C(=O)N[C@@H](C)C(=O)N[C@@H](C)C(N)=O)NC1=O [4B] (Ac-SVDDHFAKALGDTWLQI[Orn]AA-NH2; lactam 3-18) | 11 |
| CC[C@H](C)[C@@H]1NC(=O)[C@H](CCC(N)=O)NC(=O)[C@H](CC(C)C)NC(=O)[C@H](Cc2c[nH]c3ccccc23)NC(=O)[C@H]([C@@H](C)O)NC(=O)[C@H](CC(=O)O)NC(=O)CNC(=O)[C@H](CC(C)C)NC(=O)[C@H](C)NC(=O)[C@H](CCCCN)NC(=O)[C@H](C)NC(=O)[C@H](Cc2ccccc2)NC(=O)[C@H](Cc2c[nH]cn2)NC(=O)[C@H](CC(=O)O)NC(=O)[C@@H](NC(=O)[C@@H](NC(=O)[C@H](CO)NC(C)=O)C(C)C)CC(=O)NCCCC[C@@H](C(=O)N[C@@H](C)C(=O)N[C@@H](C)C(N)=O)NC1=O [4C] (Ac-SVDDHFAKALGDTWLQIKAA-NH2; lactam 3-18) | 3.2 |
